Data on 121 compounds can be found in a melting point compilation (Tetko et al.).

Regarding `CN1CCN(S(=O)(=O)c2ccc(Cl)c(N)c2)CC1`, the melting point is 103 to 107 °C.

As for `O=C(O)c1ccc2c(=O)n(-c3ccc(F)cc3)c(=O)[nH]c2c1`, the melting point lay within 397 to 399 °C.

`Cc1noc(C)c1CSc1ccccc1C(=O)O` had a melting point of 192 to 194 °C.

The compound `Cc1ccsc1C(=O)Nc1ccc2c(c1)CCCN2` had a melting point of 135 to 137 °C.

The compound `CCn1c(S)nc2ccsc2c1=O` returned a melting point of 286 to 288 °C.

The compound `NC(=NO)c1ccccc1Cl` yielded a melting point of 87 to 91 °C.

Consider `COc1ccc(S(=O)(=O)NC2CCOCC2)cc1N`, for which the melting point is 164 to 166 °C.

For `c1ccc2c(c1)C1CCC2N1`, the melting point was 92 to 94 °C.

`Cc1cc(C=CC(=O)O)cnc1N` registered a melting point of 229 to 231 °C.

In turn, `Brc1ccc2c(c1)CCCCN2` came in with a melting point of 52 to 54 °C.

With `COCCN(C(=O)CCl)c1c(N)n(CC(C)C)c(=O)[nH]c1=O`, the melting point was 204 to 206 °C.

`O=C(O)c1nnn(C2CC2)c1C(F)(F)F` came in with a melting point of 90 to 92 °C.

The compound `CC(C)c1cc(C(=O)O)cc(O)n1` came in with a melting point of 309 to 311 °C.

`COc1ccc(NS(=O)(=O)c2ccc(NN)c([N+](=O)[O-])c2)cc1` came in with a melting point of 204 to 206 °C.

Take `COc1ccccc1C(N)(C(=O)O)C(F)(F)F` (stereo unspecified): the melting point was 97 to 99 °C.

On to `NCc1ccc(N2CCNCC2)cc1`, for which the melting point lay within 163 to 165 °C.

In the case of `OCCn1nc(-c2ccccc2)cc1-c1ccccc1`, the melting point was in the range of 96 to 98 °C.

On to `CN1CCN(C(=O)c2ccc(Br)cc2)CC1`, for which the melting point lay within 81 to 83 °C.

`Fc1cccc2c1CN=C1CCCN12` yielded a melting point of 71 to 73 °C.

With `Nc1ncc(Cc2ccc(F)c(F)c2F)s1`, the melting point fell in the range of 105 to 107 °C.

On to `NC(=S)CN1C(=O)c2ccccc2C1=O`, for which the melting point is 173 to 175 °C.

As to `O=C1NC(=O)C2(CCOCC2)N1`, the melting point fell in the range of 264 to 266 °C.

`O=C(O)c1cc2cc(F)ccc2s1` gave a melting point of 207 to 209 °C.

Turning to `Cc1nccn1-c1cccc(F)n1`, the melting point was in the range of 97 to 99 °C.

`Cc1ccc(OCC(=O)O)c(Br)c1` came in with a melting point of 130 to 132 °C.

The compound `CC(C)(C)C1(C)OC(=O)CC(=O)O1` registered a melting point of 72 to 74 °C.

Consider `CCOc1ccc(-c2nc(CCl)co2)cc1`, for which the melting point was 102 to 104 °C.

Consider `O=C(O)CN1C(=O)c2cc(Cl)c(Cl)cc2C1=O`, for which the melting point lay in the range of 309 to 311 °C.

`CC1CCCCN1Cc1ccc(N)cc1` (stereo unspecified) gave a melting point of 54 to 56 °C.

In turn, `O=C(O)c1ccn(-c2cccc([N+](=O)[O-])c2)n1` returned a melting point of 230 to 232 °C.

Compound `Nc1ccc(S(=O)(=O)NC2CN3CCC2CC3)cc1` (stereo unspecified) yielded a melting point of 168 to 170 °C.

Compound `CC1CC(C)CC2(C1)NC(=O)N(CC(=O)O)C2=O` (stereo unspecified) had a melting point of 259 to 261 °C.

Take `O=C(O)CSc1ccsc1[N+](=O)[O-]`: the melting point lay in the range of 196 to 198 °C.

`CCOc1cc(C(=O)N(C)C)ccc1N` had a melting point of 107 to 109 °C.

In turn, `O=C(O)CCc1ccccn1` displayed a melting point of 134 to 136 °C.

`CC(=O)c1ccc(N2CCCC2)cc1O` showed a melting point of 120 to 122 °C.

`CCc1ccc(C(=O)O)s1` gave a melting point of 60 to 62 °C.

Take `OCCNc1ccc(Br)cc1`: the melting point lay in the range of 80 to 82 °C.

The compound `c1ccc2oc(-c3nn[nH]n3)cc2c1` gave a melting point of 212 to 214 °C.

As to `O=[N+]([O-])c1ccc(NCc2ccccn2)cc1`, the melting point lay in the range of 119 to 121 °C.

Compound `CC(=O)NCCNCc1ccccc1` displayed a melting point of 51 to 53 °C.

Compound `CCC(Br)C(=O)c1ccc(OC)cc1` (stereo unspecified) gave a melting point of 49 to 51 °C.

`Nc1cnc(Cc2ccc(F)cc2)nc1`: the melting point is 123 to 125 °C.

Compound `CC(C)(C)OC(=O)NC(C)(C)C(N)=S` returned a melting point of 169 to 171 °C.

As for `O=C(O)C1=NN(Cc2ccc(F)cc2)C(=O)CC1`, the melting point lay in the range of 190 to 192 °C.

Take `COc1ccc2c(ccn2CC(=O)O)c1`: the melting point lay within 140 to 142 °C.

Regarding `Oc1cccc(Oc2cccnc2)c1`, the melting point lay in the range of 109 to 111 °C.

`Cc1cc(C)c2cc(C(=O)O)[nH]c2c1` returned a melting point of 168 to 170 °C.

`O=C(O)C1(Sc2ccccc2)CCCC1` yielded a melting point of 65 to 67 °C.

In turn, `Cc1ccc(C(C)(C)C)cc1S(N)(=O)=O` returned a melting point of 138 to 140 °C.

`O=C(O)CC=Cc1cccc(F)c1` yielded a melting point of 64 to 66 °C.

`Nc1ccc(Cl)c(S(=O)(=O)Nc2ccc(Cl)cc2)c1` returned a melting point of 123 to 125 °C.

As to `NNc1nc(-c2ccncc2)no1`, the melting point is 189 to 191 °C.

The compound `CCOc1cc(C=O)cc(Br)c1OC` gave a melting point of 52 to 54 °C.

With `Brc1cnc2nccn2c1`, the melting point is 201 to 203 °C.

In turn, `COc1ccc(C(=O)O)cc1S(=O)(=O)N1CCCC1` registered a melting point of 218 to 220 °C.

Regarding `C#CCOc1cccc(S(C)(=O)=O)c1`, the melting point fell in the range of 89 to 91 °C.

In turn, `CCOC(=O)C1=NN(c2ccc(Cl)cc2)C(=O)C1` registered a melting point of 141 to 143 °C.

As to `Cc1nc(-c2ccncc2)[nH]c(=O)c1CC(=O)O`, the melting point was in the range of 252 to 254 °C.

Take `CC(Nc1ccccn1)c1ccco1` (stereo unspecified): the melting point was in the range of 136 to 138 °C.

`O=C(O)c1cc2ccc(SC(F)(F)F)cc2[nH]1` showed a melting point of 185 to 187 °C.

Compound `NNc1nc2cc(Cl)ccc2s1` came in with a melting point of 209 to 211 °C.

`Cc1ccc(NC(=O)OC(C)(C)C)cc1O` yielded a melting point of 109 to 111 °C.

Regarding `CC(C)CCC1CCC(=O)NC1=O` (stereo unspecified), the melting point fell in the range of 117 to 119 °C.

As to `Cn1ncc2c(Cl)nc(Cl)nc21`, the melting point was in the range of 86 to 88 °C.

On to `Oc1ccc(-c2noc(-c3cccc(Br)c3)n2)cc1`, for which the melting point lay within 222 to 224 °C.

`O=C(O)CCc1ccc(Cl)s1` displayed a melting point of 50 to 52 °C.

With `CCN(C(=O)OC(C)(C)C)C(C#N)c1cccnc1` (stereo unspecified), the melting point lay in the range of 66 to 68 °C.

The compound `Cc1cccc2[nH]c(CC#N)nc12` displayed a melting point of 158 to 160 °C.

In turn, `O=C(NC1CC1)C(=O)N1CCNCC1` came in with a melting point of 100 to 102 °C.

Consider `NNC(=O)c1ccoc1`, for which the melting point was 128 to 130 °C.

The compound `CC(C)(C)c1cc(N)n(-c2ccc(F)cc2)n1` displayed a melting point of 98 to 100 °C.

`Cn1ccnc1-c1cc(N)[nH]n1` gave a melting point of 167 to 169 °C.

In turn, `CCNc1ccc(C#N)cn1` showed a melting point of 88 to 90 °C.

Consider `OC1CCc2cn[nH]c2C1` (stereo unspecified), for which the melting point fell in the range of 154 to 156 °C.

The compound `O=C(CCl)NCCOc1cccc(C(F)(F)F)c1` gave a melting point of 43 to 45 °C.

`Cc1nnc(SCC(=O)O)n1Cc1ccccc1` showed a melting point of 167 to 169 °C.

`O=C(CCl)N1CCCCCCC1` showed a melting point of 66 to 68 °C.

Consider `Cc1ccc(-c2nc3ccc(F)cc3n2C(C)C)cc1N`, for which the melting point was in the range of 183 to 185 °C.

In turn, `O=C(O)c1ccc(S(=O)(=O)c2ccccc2)s1` registered a melting point of 192 to 194 °C.

The compound `Cc1ccc2c(C3=CCNCC3)c[nH]c2c1` gave a melting point of 178 to 180 °C.

Compound `O=c1c2cnn(-c3ccccc3)c2nnn1CCl` yielded a melting point of 179 to 181 °C.

For the compound `Cc1ccc(OCCCC(=O)Nc2ccc(CN)cc2)cc1`, the melting point was in the range of 97 to 99 °C.

`O=C1COc2ccc(Cl)cc21` displayed a melting point of 115 to 117 °C.

On to `O=C(O)c1ccnc(C2CCCC2)n1`, for which the melting point was 129 to 131 °C.

`CN(C)C(=O)c1ccc(NC(=O)CCl)cc1`: the melting point lay in the range of 177 to 179 °C.

As for `O=C(O)C1CCCN(C(=O)c2ccc3[nH]ncc3c2)C1` (stereo unspecified), the melting point lay in the range of 239 to 241 °C.

With `O=C(O)c1cc(-c2ccncc2)nc2ccc(Br)cc12`, the melting point fell in the range of 340 to 342 °C.

In turn, `CS(=O)(=O)Cc1noc(CCl)n1` displayed a melting point of 73 to 75 °C.

`CCOC(=O)C(=O)c1c(C)[nH]c2ccccc12` came in with a melting point of 127 to 129 °C.

`CC(C)NC(CCO)C1CCCCC1` (stereo unspecified) returned a melting point of 35 to 37 °C.

`Nc1cc(CSCCO)ccn1`: the melting point is 90 to 92 °C.

Regarding `Cc1ccc2[nH]c(C(=O)O)cc2c1`, the melting point lay within 218 to 220 °C.

`CC(C)C(C#N)NC(=O)OC(C)(C)C` (stereo unspecified) displayed a melting point of 73 to 75 °C.

For `Cc1ccc(CNC(=O)c2c[nH]nc2N)cc1`, the melting point lay in the range of 168 to 170 °C.

The compound `CCC(=O)c1cnccc1N` returned a melting point of 134 to 136 °C.

Consider `OCc1ccc(Cc2ccccc2)cc1`, for which the melting point lay within 37 to 39 °C.

Turning to `O=C(O)CSc1nc2ccccc2s1`, the melting point was in the range of 159 to 161 °C.

In the case of `Cc1ccc(-c2nc(CCl)cs2)o1`, the melting point was 71 to 73 °C.

Turning to `CC(C)(C)Cc1nc2cc(N)ccc2o1`, the melting point was in the range of 83 to 85 °C.

`CS(=O)(=O)CCOc1ccc(Br)cc1` yielded a melting point of 130 to 132 °C.

In turn, `O=C1c2ccccc2C(=O)N1CC1CN(Cc2ccccc2)CCO1` (stereo unspecified) yielded a melting point of 136 to 138 °C.

In the case of `CC(C)(O[Si](C)(C)C)C(N)=O`, the melting point was in the range of 29 to 31 °C.

As to `CC1(C)CC(=O)C=C(N)C1`, the melting point fell in the range of 167 to 170 °C.

`Cc1cccc2c1CN(C(=O)OC(C)(C)C)CCN2` came in with a melting point of 95 to 97 °C.

In the case of `Cc1cc(F)cc(C(=O)O)c1N`, the melting point was 191 to 193 °C.

`CNC(=O)Cn1ccc2ccc(N)cc21` came in with a melting point of 134 to 136 °C.

Regarding `O=C(O)CCCOc1ccccc1F`, the melting point was in the range of 76 to 78 °C.

`NC(NO)=C1C=CC=NC1=O`: the melting point is 176 to 178 °C.

`O=C(O)[C@H](Cc1ccccc1)N1C(=O)c2ccccc2C1=O` displayed a melting point of 179 to 181 °C.

For `CCN(CC)S(=O)(=O)c1cccc(C(=O)NN)c1`, the melting point lay within 133 to 135 °C.

Regarding `Cc1ccc(OCC2CCCO2)c(S(=O)(=O)Cl)c1` (stereo unspecified), the melting point lay within 76 to 78 °C.

`NC(=O)c1cncc(O)c1` showed a melting point of 249 to 251 °C.

As for `N#Cc1ccc(NC(=O)OCC(F)(F)F)cc1`, the melting point was 143 to 145 °C.

`Cc1cc(N)ccc1NC(=O)c1ccco1`: the melting point lay within 173 to 175 °C.

In turn, `N#Cc1ccc(F)c(CS(=O)(=O)Cl)c1` displayed a melting point of 105 to 107 °C.

Consider `O=C(O)c1ccc(S(=O)(=O)Cl)c(Cl)c1`, for which the melting point lay within 199 to 201 °C.

Consider `COCCOc1cn(-c2ccccc2)nc1C(=O)O`, for which the melting point is 103 to 105 °C.

For the compound `CC1CCN(CC(C)C(=O)NN)CC1` (stereo unspecified), the melting point fell in the range of 113 to 115 °C.

As to `N#Cc1cccc(-c2cscn2)c1`, the melting point is 111 to 113 °C.

Compound `Cc1nc2cc(=O)[nH]n2c(C)c1CC(=O)O` registered a melting point of 285 to 287 °C.

The term melting point denotes the temperature of the solid-liquid transition.
